Assay results: patent US20080139534A1, “Bisbenzamidines and bisbenzamidoximes for the treatment of human African trypanosomiasis” (XAVIER UNIVERSITY OF LOUISIANA, priority 2006, published 2008)

Key:
[1] = test system: T. b. brucei Lab 110 EATRO; experiment: In vitro trypanocidal activity, bloodforms in HMI-18 medium, Coulter counts; assay type: cell-based, Trypanosoma brucei brucei; settings: Trypanosoma brucei; 48 h exposure, bloodforms; read-out: Lab 100 EATRO IC50
Method: (§1) The compounds were tested against trypanosome isolates grown as blood forms in HMI-18 medium containing 20% horse serum in 24 well microplates at 37° C. in 5% CO2. Wells were inoculated with 1×10^5 trypanosomes. […] One-half the volume was replaced daily. Cell counts were made daily with a Coulter Counter, Model Z1 (Beckman Coulter, Miami, Fla., USA). Cells were diluted with Isoton I buffer (Beckman Coulter) and the aperture was standardized at 5.14 μm. Background checks were performed daily on 1:10 dilutions of medium. Counts, normalization, and coincident counts were accounted for by the standardized Coulter analysis program. Occasionally, hemocytometer counts were performed as a check on the validity of the Coulter program. IC50 values were determined after 48 h from semi-log plots and the values are the result of duplicate determinations. Initially a broad concentration curve was used and then a close concentration curve from which IC50 values were determined. Assays were done in duplicate and each point was the average of the two. Control cells grew to 5×10^6/ml.
(§2) Coulter counts were made daily and IC50 values determined after 48 hours exposure.

[2] = test system: T. b. rhodesiense KETRI 243; experiment: as above; assay type: cell-based, Trypanosoma brucei rhodesiense; settings: Trypanosoma brucei, RHODESIENSE, 48 h exposure
Method: as §1, §2

[3] = test system: calf thymus DNA; experiment: Thermal denaturation study, DNA binding affinity (ΔTm); settings: 1:5 compound to base pair ratio;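 note: shift in midpoint melting temperature of calf thymus DNA thermal denaturation curves caused by compound binding, values averaged over at least two determinations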
Method: (§3) The binding affinity was measured by determining the change in the midpoint (Tm) of the thermal denaturation curves of calf thymus DNA as well as poly(dA-dT) at a 1:5 compound to base pair ratio.

[4] = test system: poly(dA-dT); experiment: as above; settings: 1:5 compound to base pair ratio;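 note: shift in the midpoint temperature of the thermal melting curve of poly(dA-dT), each value the mean of two or more independent determinations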
Method: as §3

[5] = test system: T. b. brucei Lab 110 EATRO; experiment: In vivo efficacy in infected mice; set-up: species or system Trypanosoma brucei brucei; settings: mice
Method: Female Swiss-Webster mice (weight, 20 g) were infected (intraperitoneally) with 2.5×10^5 trypanosomes from rat blood, and the infection was allowed to develop for 24 h before drug treatment was begun. Groups of three mice each were injected (intraperitoneally) with each drug concentration. All of the experiments included a group of untreated controls. […] Parasitemia of animals dying of infection averaged 0.5-1.0×10^9/mL of blood. These infections are very predictable and daily counts were not done because of the labor involved. […] Animals were monitored weekly for parasites in tail vein blood smears. Mice were considered cured if they survived more than 30 days after the death of the last control with no parasites in tail vein blood smears. MSD (mean survival in days) was also recorded for each group. It is the average time of survival of the animals in the group, exclusive of cured animals.
Mice were infected with 250,000 parasites and dosing commenced 24 h. post infection. Mice were separated into groups of three and given single i.p doses for 3 days unless otherwise noted. Infected untreated controls were used for each experiment. Mice were considered cured if surviving more than 30 days beyond death of controls without parasites in tail vein blood smears. MSD, mean survival in days, exclusive of cured animals.

[6] = test system: T. b. rhodesiense KETRI 2002; experiment: In vivo efficacy in infected mice, clinical isolate; set-up: species or system Trypanosoma brucei rhodesiense
Method: (§4) Female Swiss-Webster mice (weight, 20 g) were infected (intraperitoneally) with 2.5×10^5 trypanosomes from rat blood, and the infection was allowed to develop for 24 h before drug treatment was begun. Groups of three mice each were injected (intraperitoneally) with each drug concentration. All of the experiments included a group of untreated controls. […] Animals were monitored weekly for parasites in tail vein blood smears. Mice were considered cured if they survived more than 30 days after the death of the last control with no parasites in tail vein blood smears. MSD (mean survival in days) was also recorded for each group. It is the average time of survival of the animals in the group, exclusive of cured animals.
(§5) Mice were infected on day 1 with 2.5×10^5 trypanosomes and the infections allowed to progress 24 h. prior to dosing. Animals were dosed 1×/day i.p for 3 days. Cured animals survived >30 days beyond the death of untreated, infected controls. MSD=mean survival in days exclusive of cured animals. Dose as mg/kg/day.

[7] = test system: T. b. rhodesiense KETRI 2538; experiment: as above; set-up: species or system Trypanosoma brucei rhodesiense
Method: as §4, §5

[8] = test system: T. b. rhodesiense KETRI 1992; experiment: as above; set-up: species or system Trypanosoma brucei rhodesiense
Method: as §4, §5

[9] = 25 mg/kg i.p., single dose (1x)
[10] = KETRI 1992, 5 mg/kg/day i.p. for 3 days
[11] = KETRI 1992, 10 mg/kg/day i.p. for 3 days
[12] = KETRI 1992, 15 mg/kg/day i.p. for 3 days

N=C(N)c1ccc(NC(=O)CCCCC(=O)Nc2ccc(C(=N)N)cc2)cc1 [compound 0702]
IC50 [1]: 2.8 nM
IC50 [2]: 2.45 nM
DNA Binding Δ Tm Calf thymus [3]: 8.7 °C
DNA Binding Δ Tm Poly (dA-dT) [4]: 14.4 °C
# Cured/#Treated (%) ([5]; 1 mg/kg/day i.p. for 3 days): 0/3
MSD ([5]; 1 mg/kg/day i.p. for 3 days): 6.7 days
MSD ([5]; 5 mg/kg/day i.p. for 3 days): >30 days
MSD ([5]; 10 mg/kg/day i.p. for 3 days): >30 days
MSD ([5]; 15 mg/kg/day i.p. for 3 days): >30 days
# Cured/#Treated (%) [5, 9]: 0/3
MSD [5, 9]: 22 days
MSD ([5]; 25 mg/kg/day i.p., 2 doses (2x)): >30 days
MSD ([6]; KETRI 2002, 10 mg/kg/day i.p. for 3 days): >30 days
MSD ([6]; KETRI 2002, 15 mg/kg/day i.p. for 3 days): >30 days
MSD ([6]; KETRI 2002, 25 mg/kg/day i.p. for 3 days): >30 days
MSD ([7]; KETRI 2538, 5 mg/kg/day i.p. for 3 days): >30 days
MSD ([7]; KETRI 2538, 10 mg/kg/day i.p. for 3 days): >30 days
MSD ([7]; KETRI 2538, 15 mg/kg/day i.p. for 3 days): >30 days
#Cured/Total [8, 10]: 0/3
MSD [8, 10]: 16.5 days
#Cured/Total [8, 11]: 0/3
MSD [8, 11]: 17.5 days
#Cured/Total [8, 12]: 0/3
MSD [8, 12]: 22 days
